Assay [1] deals with T1, KCNQ2 W236L (Homo sapiens, UniProt O43526, W236L).
T1 construct: expressed in transfected cells; host or cells: CHO cells
Briefly: Whole cell voltage-clamp, KCNQ2 W236L channels in CHO cells. Format: cell-based. The source says: (§1) Four highly recurrent KCNQ2-EE missense variants (FIG. 3), R210H (located in S4 of the voltage-sensor), T274M (located in the pore helix), A294V (located at the border of the pore loop and S6), and R581Q/L (located in the intracellular helix C), were introduced into KCNQ2 cDNA by QuikChange site-directed mutagenesis. R210H is in S4 of the voltage-sensor, T274M is in the pore helix, A294V is at the border of the pore loop and S6, and R581Q is in the intracellular helix C. Using lipid-mediated transfection, plasmids including the pathogenic variants were co-expressed with wildtype KCNQ2 or KCNQ2 and KCNQ3 subunits in Chinese hamster ovary (CHO) cells. The KCNQ2 S5 helix mutation W236L, which abolishes EZO modulation, was used to characterize Compound A binding. Whole cell voltage-clamp protocols were used to measure gating and conductance of wildtype channels and mutated subunit containing channels, before, during and after Compound A application via focal pipette perfusion.

In assay [2] the target is T2, KCNQ2 homomers (Kv7.2 homomers) (Homo sapiens, UniProt O43526).
T2 construct: expressed in transfected cells; host or cells: CHO cells
Briefly: Whole cell voltage-clamp, wildtype KCNQ2 homomers expressed in CHO cells. The conditions noted are these: 10.0 μM ezogabine; FIG. 11. Format: cell-based. The protocol: Biological Assay Methods—Using lipid mediated transfection, plasmids including only wildtype (wt) KCNQ2, only wt KCNQ3, or both wt KCNQ2 and wt KCNQ3 subunits were expressed in Chinese hamster ovary (CHO) cells. Whole cell voltage-clamp protocols were used to measure gating and conductance density of wt channels before, during and after test compound application via focal pipette perfusion. The half-activating voltage (V1/2) was determined by Boltzmann fits of the conductance-voltage (G/V) curves.
as §1, with “Whole cell voltage-clamp protocols were used to measure gating and conductance of wildtype channels and mutated subunit containing channels, before, during and after Compound A application via focal pipette perfusion.” left out

With `CCOC(=O)Nc1ccc(NCc2ccc(F)cc2)cc1N` [EZO, ezogabine], the current density entry in assay [1] (W236L channels, 10.0 μM ezogabine, FIG. 14) is listed as “did not affect”; in assay [2] it was “increased”. Also, in assay [1] (wildtype KCNQ2 versus W236L), the “dependence of KCNQ2 homomer activation on W236” value is on record as “requires W236, like EZO”.

(Values after patent publication US12370176B2, “Methods of use for KV7 channel activators” (Biohaven Therapeutics Ltd., priority 2019, dated 2025).)
